Drawing on patent US9340590B2 (priority 2011, dated 2016), this text covers IC50 and Nav1.7/Nav1.3 for eight compounds.

The target in this experiment is hNav1.3 (Homo sapiens, UniProt Q9NY46). Description: cell-based. To be noted: for IC50: IonWorks Quattro, read-out: IWQ Use Nav1.3. Background: Patch clamp records ionic current or voltage across a cell membrane.
Where [1] appears, read: use-dependent protocol, hNav1.3.

Structures are written as SMILES. Read-outs that look alike come from different tables or passages of the source. Positions of bridges follow the written chain, without caps; N, C: chain ends. Residues, ends and D or L forms follow the SMILES beside them.

Chain of hNav1.3 (Q9NY46 whole entry, looked up): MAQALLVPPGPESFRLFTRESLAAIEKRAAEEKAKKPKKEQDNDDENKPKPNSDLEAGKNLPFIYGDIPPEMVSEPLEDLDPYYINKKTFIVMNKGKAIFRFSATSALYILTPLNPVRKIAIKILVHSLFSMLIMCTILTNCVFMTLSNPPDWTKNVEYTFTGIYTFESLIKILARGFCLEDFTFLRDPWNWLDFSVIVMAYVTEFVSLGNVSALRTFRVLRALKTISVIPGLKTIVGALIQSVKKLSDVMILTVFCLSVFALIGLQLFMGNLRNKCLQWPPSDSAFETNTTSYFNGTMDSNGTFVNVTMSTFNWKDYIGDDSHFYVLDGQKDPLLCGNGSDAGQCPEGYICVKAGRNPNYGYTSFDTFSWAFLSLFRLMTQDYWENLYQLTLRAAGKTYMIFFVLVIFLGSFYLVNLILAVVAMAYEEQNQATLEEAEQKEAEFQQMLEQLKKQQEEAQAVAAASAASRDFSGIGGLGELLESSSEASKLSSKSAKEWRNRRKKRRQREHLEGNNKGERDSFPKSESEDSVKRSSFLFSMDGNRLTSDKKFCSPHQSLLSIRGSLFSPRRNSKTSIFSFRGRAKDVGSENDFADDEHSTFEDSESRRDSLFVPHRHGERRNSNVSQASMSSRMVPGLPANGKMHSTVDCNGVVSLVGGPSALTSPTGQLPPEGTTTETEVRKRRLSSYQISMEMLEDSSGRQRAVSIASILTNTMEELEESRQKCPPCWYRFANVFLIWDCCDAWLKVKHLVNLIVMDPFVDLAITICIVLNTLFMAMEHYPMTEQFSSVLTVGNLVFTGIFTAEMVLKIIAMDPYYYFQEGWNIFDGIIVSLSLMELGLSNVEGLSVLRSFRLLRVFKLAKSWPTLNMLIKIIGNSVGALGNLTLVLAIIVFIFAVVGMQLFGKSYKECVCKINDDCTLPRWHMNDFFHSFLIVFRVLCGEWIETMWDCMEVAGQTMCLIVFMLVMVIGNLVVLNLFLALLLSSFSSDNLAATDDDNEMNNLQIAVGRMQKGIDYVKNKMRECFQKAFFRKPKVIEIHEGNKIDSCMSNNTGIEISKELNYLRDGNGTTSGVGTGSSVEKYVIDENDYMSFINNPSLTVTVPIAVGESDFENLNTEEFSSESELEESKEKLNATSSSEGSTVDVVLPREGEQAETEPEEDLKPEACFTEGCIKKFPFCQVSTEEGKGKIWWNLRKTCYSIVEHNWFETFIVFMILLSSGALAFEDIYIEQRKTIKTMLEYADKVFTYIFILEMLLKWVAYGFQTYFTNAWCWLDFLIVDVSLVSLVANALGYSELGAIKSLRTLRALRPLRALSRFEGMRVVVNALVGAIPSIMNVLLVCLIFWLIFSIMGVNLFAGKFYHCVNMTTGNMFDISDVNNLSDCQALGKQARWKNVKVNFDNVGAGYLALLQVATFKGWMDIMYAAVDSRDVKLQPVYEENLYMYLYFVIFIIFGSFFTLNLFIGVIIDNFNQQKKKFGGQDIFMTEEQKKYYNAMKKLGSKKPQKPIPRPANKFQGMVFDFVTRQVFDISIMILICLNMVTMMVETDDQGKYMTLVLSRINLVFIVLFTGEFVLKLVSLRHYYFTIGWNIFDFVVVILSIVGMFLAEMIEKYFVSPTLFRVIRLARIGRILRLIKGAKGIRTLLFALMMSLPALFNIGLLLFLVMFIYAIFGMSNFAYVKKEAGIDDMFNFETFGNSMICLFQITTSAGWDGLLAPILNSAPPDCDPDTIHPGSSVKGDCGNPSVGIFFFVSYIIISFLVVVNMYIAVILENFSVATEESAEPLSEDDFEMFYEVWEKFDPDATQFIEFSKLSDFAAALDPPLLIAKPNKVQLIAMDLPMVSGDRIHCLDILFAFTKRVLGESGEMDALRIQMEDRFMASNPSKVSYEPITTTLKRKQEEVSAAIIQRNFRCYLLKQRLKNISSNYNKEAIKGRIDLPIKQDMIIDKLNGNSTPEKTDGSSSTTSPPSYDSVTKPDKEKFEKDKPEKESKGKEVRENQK

Regarding `CC[C@H](C)[C@@H]1NC(=O)[C@@H]2CSSC[C@@H]3NC(=O)[C@H](C(C)C)NC(=O)[C@H](CC(C)C)NC(=O)[C@H](CC(N)=O)NC(=O)[C@@H]4CCCN4C(=O)[C@H](CCCNC(=N)N)NC(=O)[C@H](CSSC[C@H](NC(=O)[C@@H](N)CC(=O)O)C(=O)N[C@@H](CC(C)C)C(=O)NCC(=O)N[C@@H](Cc4ccccc4)C(=O)N[C@@H](CCSC)C(=O)N[C@@H](CCCNC(=N)N)C(=O)N[C@@H](CCCCN)C(=O)N2)NC(=O)[C@H](CSSC[C@@H](C(=O)N[C@@H](CCCCN)C(=O)N[C@@H](Cc2ccc(O)cc2)C(=O)N[C@H](C(=O)N[C@@H](Cc2ccccc2)C(N)=O)C(C)C)NC(=O)[C@H](Cc2c[nH]c4ccccc24)NC(=O)[C@H](CC(=O)O)NC(=O)[C@H](Cc2cnc[nH]2)NC(=O)[C@H]([C@@H](C)O)NC(=O)[C@H](CCCNC(=N)N)NC(=O)[C@H](CO)NC3=O)NC(=O)[C@H](CCCCN)NC(=O)[C@H](CC(=O)O)NC(=O)[C@H](CC(N)=O)NC(=O)[C@H](CC(=O)O)NC(=O)[C@@H]2CCCN2C1=O` [SEQ ID NO: 750, [Asp28]GpTx-1] (H-DCLGFMRKCIPDNDKCCRPNLVCSRTHDWCKYVF-NH2; disulfide 2-17, 9-23, 16-30), the IC50 (use-dependent block, hNav1.3) is 770 nM.

As for `CSCC[C@@H]1NC(=O)[C@H](Cc2ccccc2)NC(=O)CNC(=O)[C@H](CC(C)C)NC(=O)[C@@H](NC(=O)[C@@H](N)CC(=O)O)CSSC[C@@H]2NC(=O)[C@@H]3CSSC[C@@H](C(=O)N[C@@H](CCCCN)C(=O)N[C@@H](Cc4ccc(O)cc4)C(=O)N[C@H](C(=O)N[C@@H](Cc4ccccc4)C(N)=O)C(C)C)NC(=O)[C@H](Cc4c[nH]c5ccccc45)NC(=O)[C@H](CCCCN)NC(=O)[C@H](Cc4cnc[nH]4)NC(=O)[C@H]([C@@H](C)O)NC(=O)[C@H](CCCNC(=N)N)NC(=O)[C@H](CO)NC(=O)[C@H](CSSC[C@H](NC(=O)[C@H](CCCCN)NC(=O)[C@H](CCCNC(=N)N)NC1=O)C(=O)N[C@@H](CCSC)C(=O)N1CCC[C@H]1C(=O)N[C@@H](CC(=O)O)C(=O)N[C@@H](CC(N)=O)C(=O)N[C@@H](CC(=O)O)C(=O)N[C@@H](CCCCN)C(=O)N3)NC(=O)[C@H](C(C)C)NC(=O)[C@H](CC(C)C)NC(=O)[C@H](CC(N)=O)NC(=O)[C@@H]1CCCN1C(=O)[C@H](CCCNC(=N)N)NC2=O` [compound 307] (H-DCLGFMRKCMPDNDKCCRPNLVCSRTHKWCKYVF-NH2; disulfide 2-17, 9-23, 16-30), the IC50 (Use) came out at 100 nM.

Take `CSCC[C@@H]1NC(=O)[C@H](Cc2ccccc2)NC(=O)CNC(=O)[C@H](CC(C)C)NC(=O)[C@@H](NC(=O)[C@@H](N)CC(=O)O)CSSC[C@@H]2NC(=O)[C@@H]3CSSC[C@@H](C(=O)N[C@@H](CCCCN)C(=O)N[C@@H](Cc4ccc(O)cc4)C(=O)N[C@H](C(=O)N[C@@H](Cc4ccccc4)C(N)=O)C(C)C)NC(=O)[C@H](Cc4c[nH]c5ccccc45)NC(=O)[C@H](CCCCN)NC(=O)[C@H](Cc4cnc[nH]4)NC(=O)[C@H]([C@@H](C)O)NC(=O)[C@H](CCCNC(=N)N)NC(=O)[C@H](CO)NC(=O)[C@H](CSSC[C@H](NC(=O)[C@H](CCCCN)NC(=O)[C@H](CCCNC(=N)N)NC1=O)C(=O)N[C@@H]([C@@H](C)O)C(=O)N1CCC[C@H]1C(=O)N[C@@H](CC(=O)O)C(=O)N[C@@H](CC(N)=O)C(=O)N[C@@H](CC(=O)O)C(=O)N[C@@H](CCCCN)C(=O)N3)NC(=O)[C@H](C(C)C)NC(=O)[C@H](CC(C)C)NC(=O)[C@H](CC(N)=O)NC(=O)[C@@H]1CCCN1C(=O)[C@H](CCCNC(=N)N)NC2=O` [compound 309] (H-DCLGFMRKCTPDNDKCCRPNLVCSRTHKWCKYVF-NH2; disulfide 2-17, 9-23, 16-30): the IC50 (Use) came to 60 nM. On to `CC[C@H](C)[C@@H]1NC(=O)[C@@H]2CSSC[C@@H]3NC(=O)[C@H](C(C)C)NC(=O)[C@H](CC(C)C)NC(=O)[C@H](CC(N)=O)NC(=O)[C@@H]4CCCN4C(=O)[C@H](CCCNC(=N)N)NC(=O)[C@H](CSSC[C@H](NC(=O)[C@@H](N)CC(=O)O)C(=O)N[C@@H](CC(C)C)C(=O)NCC(=O)N[C@@H](Cc4ccccc4)C(=O)N[C@@H](Cc4ccccc4)C(=O)N[C@@H](CCCNC(=N)N)C(=O)N[C@@H](CCCCN)C(=O)N2)NC(=O)[C@H](CSSC[C@@H](C(=O)N[C@@H](CCCCN)C(=O)N[C@@H](Cc2cn(CCOCCOCCOCCOCCOCCOCCOCCOCCOCCOCCN)nn2)C(=O)N[C@H](C(=O)N[C@@H](Cc2cccc4ccccc24)C(N)=O)C(C)C)NC(=O)[C@H](Cc2c[nH]c4ccccc24)NC(=O)[C@H](CCCCN)NC(=O)[C@H](Cc2c[nH]cn2)NC(=O)[C@H]([C@@H](C)O)NC(=O)[C@H](CCCNC(=N)N)NC(=O)[C@H](CO)NC3=O)NC(=O)[C@H](CCCCN)NC(=O)[C@H](CC(=O)O)NC(=O)[C@H](CC(N)=O)NC(=O)[C@H](CC(=O)O)NC(=O)[C@@H]2CCCN2C1=O` [compound 559], for which, where the note is “ratio of IWQ Use IC50 values”, the Nav1.7/Nav1.3 is 2.3. On the same count and under the same terms, for `CC[C@H](C)[C@@H]1NC(=O)[C@@H]2CSSC[C@@H]3NC(=O)[C@H](C(C)C)NC(=O)[C@H](CC(C)C)NC(=O)[C@H](CC(N)=O)NC(=O)[C@@H]4CCCN4C(=O)[C@H](CCCNC(=N)N)NC(=O)[C@H](CSSC[C@H](NC(=O)[C@@H](N)CC(=O)O)C(=O)N[C@@H](CC(C)C)C(=O)NCC(=O)N[C@@H](Cc4ccccc4)C(=O)N[C@@H](Cc4ccccc4)C(=O)N[C@@H](CCCNC(=N)N)C(=O)N[C@@H](CCCCN)C(=O)N2)NC(=O)[C@H](CSSC[C@@H](C(=O)N[C@@H](CCCCN)C(=O)N[C@@H](Cc2ccc(O)cc2)C(=O)N[C@H](C(=O)N[C@@H](Cc2ccccc2)C(=O)N[C@@H](Cc2cn(CCOCCOCCOCCOCCOCCOCCOCCOCCOCCOCCN)nn2)C(N)=O)C(C)C)NC(=O)[C@H](Cc2c[nH]c4ccccc24)NC(=O)[C@H](CCCCN)NC(=O)[C@H](Cc2c[nH]cn2)NC(=O)[C@H](CC(C)C)NC(=O)[C@H](CCCNC(=N)N)NC(=O)[C@H](CO)NC3=O)NC(=O)[C@H](CCCCN)NC(=O)[C@H](CC(=O)O)NC(=O)[C@H](CC(N)=O)NC(=O)[C@H](CC(=O)O)NC(=O)[C@@H]2CCCN2C1=O` [compound 588] the value was 3.3. Consider `CC[C@H](C)[C@@H]1NC(=O)[C@@H]2CSSC[C@@H]3NC(=O)[C@H](C(C)C)NC(=O)[C@H](CC(C)C)NC(=O)[C@H](CC(N)=O)NC(=O)[C@@H]4CCCN4C(=O)[C@H](CCCNC(=N)N)NC(=O)[C@H](CSSC[C@H](NC(=O)[C@@H](N)CC(=O)O)C(=O)N[C@@H](CC(C)C)C(=O)NCC(=O)N[C@H](C)C(=O)N[C@@H](CC(C)C)C(=O)N[C@@H](CCCNC(=N)N)C(=O)N[C@@H](CCCCN)C(=O)N2)NC(=O)[C@H](CSSC[C@@H](C(=O)N[C@@H](CCCCN)C(=O)N[C@@H](Cc2ccc(O)cc2)C(=O)N[C@H](C(=O)N[C@@H](Cc2ccccc2)C(N)=O)C(C)C)NC(=O)[C@H](Cc2c[nH]c4ccccc24)NC(=O)[C@H](CCCCN)NC(=O)[C@H](Cc2c[nH]cn2)NC(=O)[C@H]([C@@H](C)O)NC(=O)[C@H](CCCNC(=N)N)NC(=O)[C@H](CO)NC3=O)NC(=O)[C@H](CCCCN)NC(=O)[C@H](CC(=O)O)NC(=O)[C@H](CC(N)=O)NC(=O)[C@H](CC(=O)O)NC(=O)[C@@H]2CCCN2C1=O` [compound 633], for which, under setting [1], the IC50 stood at 11500 nM. Regarding `CC[C@H](C)[C@@H]1NC(=O)[C@@H]2CSSC[C@@H]3NC(=O)[C@H](C(C)C)NC(=O)[C@H](CC(C)C)NC(=O)[C@H](CC(N)=O)NC(=O)[C@@H]4CCCN4C(=O)[C@H](CCCNC(=N)N)NC(=O)[C@H](CSSC[C@H](NC(=O)[C@@H](N)CC(=O)O)C(=O)N[C@@H](CC(C)C)C(=O)NCC(=O)N[C@@H](Cc4ccc(OC)c(OC)c4)C(=O)N[C@@H](CCSC)C(=O)N[C@@H](CCCNC(=N)N)C(=O)N[C@@H](CCCCN)C(=O)N2)NC(=O)[C@H](CSSC[C@@H](C(=O)N[C@@H](CCCCN)C(=O)N[C@@H](Cc2ccc(O)cc2)C(=O)N[C@H](C(=O)N[C@@H](Cc2ccccc2)C(N)=O)C(C)C)NC(=O)[C@H](Cc2c[nH]c4ccccc24)NC(=O)[C@H](CCCCN)NC(=O)[C@H](Cc2c[nH]cn2)NC(=O)[C@H]([C@@H](C)O)NC(=O)[C@H](CCCNC(=N)N)NC(=O)[C@H](CO)NC3=O)NC(=O)[C@H](CCCCN)NC(=O)[C@H](CC(=O)O)NC(=O)[C@H](CC(N)=O)NC(=O)[C@H](CC(=O)O)NC(=O)[C@@H]2CCCN2C1=O` [compound 652], where the note is “ratio of IWQ Use values, Nav1.7 over Nav1.3”, the Nav1.7/Nav1.3 came to 0.8.

With `CC[C@H](C)[C@@H]1NC(=O)[C@@H]2CSSC[C@@H]3NC(=O)[C@H](C(C)C)NC(=O)[C@H](CC(C)C)NC(=O)[C@H](CC(N)=O)NC(=O)[C@@H]4CCCN4C(=O)[C@H](CCCNC(=N)N)NC(=O)[C@H](CSSC[C@H](NC(=O)[C@@H](N)CC(=O)O)C(=O)N[C@@H](CC(C)C)C(=O)NCC(=O)N[C@@H](C)C(=O)N[C@@H](CC(C)C)C(=O)N[C@@H](CCCNC(=N)N)C(=O)N[C@@H](CCCCN)C(=O)N2)NC(=O)[C@H](CSSC[C@@H](C(=O)N[C@@H](CCCCN)C(=O)N[C@@H](Cc2ccc(O)cc2)C(=O)N[C@H](C(=O)N[C@@H](Cc2ccccc2)C(N)=O)C(C)C)NC(=O)[C@H](Cc2c[nH]c4ccccc24)NC(=O)[C@H](CCCCN)NC(=O)[C@H](Cc2cnc[nH]2)NC(=O)[C@H]([C@@H](C)O)NC(=O)[C@H](CCCNC(=N)N)NC(=O)[C@H](CO)NC3=O)NC(=O)[C@H](CCCCN)NC(=O)[C@H](CC(=O)O)NC(=O)[C@H](CC(N)=O)NC(=O)[C@H](CC(=O)O)NC(=O)[C@@H]2CCCN2C1=O` [compound 696], the IC50 under setting [1] is 750 nM.
